Active and inactive are the calls of the source.
Experiments:
Protein skinhead-1 = biological target: T1, Protein skinhead-1 (Caenorhabditis elegans, UniProt P34707); format: functional
T1 sequence (P34707 whole entry): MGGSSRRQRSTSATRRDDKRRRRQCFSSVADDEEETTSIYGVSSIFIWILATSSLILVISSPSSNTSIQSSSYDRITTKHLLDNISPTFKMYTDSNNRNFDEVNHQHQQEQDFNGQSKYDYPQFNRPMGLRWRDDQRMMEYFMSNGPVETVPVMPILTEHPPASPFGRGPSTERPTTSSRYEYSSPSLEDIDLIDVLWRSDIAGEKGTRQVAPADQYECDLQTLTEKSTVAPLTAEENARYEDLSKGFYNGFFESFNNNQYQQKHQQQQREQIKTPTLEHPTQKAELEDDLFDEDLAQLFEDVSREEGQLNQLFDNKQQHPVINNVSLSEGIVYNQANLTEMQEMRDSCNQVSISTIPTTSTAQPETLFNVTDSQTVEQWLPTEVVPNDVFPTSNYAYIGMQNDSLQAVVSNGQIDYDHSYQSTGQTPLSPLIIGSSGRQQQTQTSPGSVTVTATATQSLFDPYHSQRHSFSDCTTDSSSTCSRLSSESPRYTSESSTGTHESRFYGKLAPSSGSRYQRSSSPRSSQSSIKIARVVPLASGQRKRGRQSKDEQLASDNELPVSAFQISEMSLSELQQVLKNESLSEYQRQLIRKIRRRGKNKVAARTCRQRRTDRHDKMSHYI

[1] = inhibitors of clade B AD8 Env fusion, dose response, cell-based, cherry-pick (AID 652062); format: functional;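 also: luciferase signal from cell-cell fusion driven by HIV-1 clade B AD8 Env; potency is for inhibitors of fusion seen as a drop in luminescence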
[2] = inhibitors of HIV Env-driven cell fusion, dose response, cherry-pick (AID 652057); format: functional, cell-based
[3] = biological target: Induced myeloid leukemia cell differentiation protein Mcl-1 (Homo sapiens, UniProt Q07820); format: functional
[4] = biological target: T2, Microphthalmia-associated transcription factor (Homo sapiens, UniProt O75030); test: TRPM1 promoter luciferase signal decrease, dose response, MITF inhibitor project, cell-based, SK-MEL-5, cherry-picked, set 3 (AID 493073); format: functional
T2 sequence (O75030 whole entry): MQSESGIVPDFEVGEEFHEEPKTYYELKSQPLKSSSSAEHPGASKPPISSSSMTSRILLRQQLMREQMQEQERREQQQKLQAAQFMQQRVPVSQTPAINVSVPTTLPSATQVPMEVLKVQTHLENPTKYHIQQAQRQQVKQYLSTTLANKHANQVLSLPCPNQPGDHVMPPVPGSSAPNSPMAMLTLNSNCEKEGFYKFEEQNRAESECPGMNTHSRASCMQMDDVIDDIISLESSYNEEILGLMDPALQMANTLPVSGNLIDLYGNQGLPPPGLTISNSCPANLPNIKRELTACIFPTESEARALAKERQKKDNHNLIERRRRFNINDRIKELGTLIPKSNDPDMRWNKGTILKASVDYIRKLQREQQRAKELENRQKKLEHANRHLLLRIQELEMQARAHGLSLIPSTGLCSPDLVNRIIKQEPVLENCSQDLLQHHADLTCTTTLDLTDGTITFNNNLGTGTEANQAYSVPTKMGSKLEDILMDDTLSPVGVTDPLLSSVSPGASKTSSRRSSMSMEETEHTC

[5] = biological target: T3, Replicative DNA helicase DnaB (Mycobacterium tuberculosis, UniProt P9WMR3); test: DnaB intein splicing inhibitors, dose response, biochemical, cell-free fluorescence (AID 449749); format: functional
T3 sequence (P9WMR3 whole entry): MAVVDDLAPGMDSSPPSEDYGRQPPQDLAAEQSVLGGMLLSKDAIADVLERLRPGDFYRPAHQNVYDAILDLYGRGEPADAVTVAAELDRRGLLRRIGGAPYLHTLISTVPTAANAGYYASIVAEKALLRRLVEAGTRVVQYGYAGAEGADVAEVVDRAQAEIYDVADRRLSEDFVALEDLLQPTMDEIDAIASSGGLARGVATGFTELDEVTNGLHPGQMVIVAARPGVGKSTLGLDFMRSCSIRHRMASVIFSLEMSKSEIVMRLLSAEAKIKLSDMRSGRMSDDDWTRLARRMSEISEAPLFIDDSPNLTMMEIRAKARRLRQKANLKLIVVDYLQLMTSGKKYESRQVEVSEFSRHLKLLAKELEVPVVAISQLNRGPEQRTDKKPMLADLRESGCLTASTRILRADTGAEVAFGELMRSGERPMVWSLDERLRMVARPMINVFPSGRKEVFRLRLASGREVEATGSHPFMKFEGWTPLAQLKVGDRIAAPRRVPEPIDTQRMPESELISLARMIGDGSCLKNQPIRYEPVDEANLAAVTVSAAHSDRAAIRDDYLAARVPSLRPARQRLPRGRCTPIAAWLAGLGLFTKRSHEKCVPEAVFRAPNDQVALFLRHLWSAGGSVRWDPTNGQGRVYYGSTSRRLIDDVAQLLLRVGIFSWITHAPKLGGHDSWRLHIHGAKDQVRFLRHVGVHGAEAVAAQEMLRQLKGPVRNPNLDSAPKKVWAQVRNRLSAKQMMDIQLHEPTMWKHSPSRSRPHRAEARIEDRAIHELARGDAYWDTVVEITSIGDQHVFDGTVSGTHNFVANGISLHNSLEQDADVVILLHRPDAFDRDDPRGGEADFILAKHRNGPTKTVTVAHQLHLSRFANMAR

Protein RecA = biological target: T4, Protein RecA (Mycobacterium tuberculosis, UniProt P9WHJ3); test: Fluorescence Cell-Free Homogeneous Dose Retest to Identify Inhibitors of RecA-Intein Splicing Activity. [Related pubchem assays (depositor defined):AID2097, AID2223, AID489010, AID492950]; format: functional
T4 sequence (P9WHJ3 whole entry): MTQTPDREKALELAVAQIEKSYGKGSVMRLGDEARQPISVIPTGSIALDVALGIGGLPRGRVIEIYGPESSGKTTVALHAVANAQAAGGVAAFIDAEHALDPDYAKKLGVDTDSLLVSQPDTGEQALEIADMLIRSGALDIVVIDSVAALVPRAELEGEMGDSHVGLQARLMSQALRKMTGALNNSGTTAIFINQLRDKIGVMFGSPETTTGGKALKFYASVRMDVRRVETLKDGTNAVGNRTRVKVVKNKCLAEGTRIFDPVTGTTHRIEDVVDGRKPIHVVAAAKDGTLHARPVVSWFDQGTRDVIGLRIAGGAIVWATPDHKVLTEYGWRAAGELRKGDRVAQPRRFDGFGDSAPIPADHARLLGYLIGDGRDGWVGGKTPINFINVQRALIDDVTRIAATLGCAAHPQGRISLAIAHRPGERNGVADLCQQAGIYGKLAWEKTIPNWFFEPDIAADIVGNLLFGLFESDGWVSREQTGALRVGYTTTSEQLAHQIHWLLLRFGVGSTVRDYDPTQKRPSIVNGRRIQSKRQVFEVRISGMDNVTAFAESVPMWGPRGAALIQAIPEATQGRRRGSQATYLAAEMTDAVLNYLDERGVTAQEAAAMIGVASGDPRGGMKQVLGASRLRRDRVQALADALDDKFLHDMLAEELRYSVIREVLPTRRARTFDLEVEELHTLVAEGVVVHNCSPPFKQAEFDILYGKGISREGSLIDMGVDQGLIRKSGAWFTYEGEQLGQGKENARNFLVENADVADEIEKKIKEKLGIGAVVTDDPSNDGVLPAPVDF

[6] = HEp-2 cell cytotoxicity, dose response, cytotoxicity control for RSV inhibitor project, HTS (AID 2410); format: functional; conditions: human respiratory syncytial virus
[7] = biological target: T5, Heat shock factor protein 1 (Mus musculus, UniProt P38532); test: HSF1 potentiators in luciferase reporter cells, confirmation, cell-based, NIH3T3, luminescence, dose retest (AID 435004); format: functional;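 also: stress induced by proteasome inhibitor MG132 added 30 min after compound; luciferase reporter driven by HSF1 response element in NIH3T3 cells; actives raise luminescence as potentiators of the MG132 stress response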
T5 sequence (P38532 whole entry): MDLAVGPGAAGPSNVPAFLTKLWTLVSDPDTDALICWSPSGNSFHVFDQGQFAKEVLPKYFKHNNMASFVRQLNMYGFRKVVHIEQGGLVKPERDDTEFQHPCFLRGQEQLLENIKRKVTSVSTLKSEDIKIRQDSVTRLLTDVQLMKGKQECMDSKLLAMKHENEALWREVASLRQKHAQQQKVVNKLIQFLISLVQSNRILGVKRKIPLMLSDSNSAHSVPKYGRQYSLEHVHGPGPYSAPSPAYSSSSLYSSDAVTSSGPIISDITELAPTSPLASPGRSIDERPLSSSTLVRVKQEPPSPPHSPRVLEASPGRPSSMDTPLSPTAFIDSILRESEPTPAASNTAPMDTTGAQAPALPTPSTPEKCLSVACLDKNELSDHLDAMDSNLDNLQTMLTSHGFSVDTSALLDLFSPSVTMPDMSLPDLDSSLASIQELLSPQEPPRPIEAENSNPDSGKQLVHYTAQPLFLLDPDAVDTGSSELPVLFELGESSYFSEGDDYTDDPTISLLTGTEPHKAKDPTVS

[8] = biological target: T6, Calpain-2 catalytic subunit (Sus scrofa, UniProt P43367); test: pig calpain II inhibitor potency, dose response, biochemical, fluorogenic peptide substrate (AID 1420); format: functional
T6 sequence (P43367 whole entry): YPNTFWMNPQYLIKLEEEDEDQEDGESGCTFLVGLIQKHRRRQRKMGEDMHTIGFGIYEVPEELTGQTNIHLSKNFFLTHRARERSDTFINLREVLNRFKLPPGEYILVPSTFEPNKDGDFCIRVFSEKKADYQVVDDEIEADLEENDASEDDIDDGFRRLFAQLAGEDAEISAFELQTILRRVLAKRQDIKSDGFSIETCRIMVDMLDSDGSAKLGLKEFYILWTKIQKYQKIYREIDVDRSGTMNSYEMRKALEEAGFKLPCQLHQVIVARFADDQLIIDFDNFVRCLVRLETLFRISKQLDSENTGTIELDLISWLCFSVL

[9] = cytotoxicity toward NIH3T3 fibroblasts, dose response, counter-screen, cell-based, ATP luminescence, mouse fibroblasts (AID 2010); format: functional;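 also: cells exposed to compound for about 90 hours before reading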
[10] = inhibitors of intracellular T. cruzi replication, confirmation, NIH3T3 host cells, beta-gal luminescence (AID 2044); format: functional, cell-based;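 also: intracellular parasites grown in NIH/3T3 mouse fibroblasts as host cells; luminescent beta-galactosidase reporter signal from transgenic T. cruzi replicating inside host cells; inhibitors lower the luminescence signal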
[11] = biological target: T5, Heat shock factor protein 1; test: inhibition of MG132-induced HSE-luciferase signal, confirmation, cell-based, NIH3T3, luminescence, dose retest (AID 2382); format: functional;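 also: NIH3T3 fibroblasts with HSF1-driven luciferase reporter stressed by proteasome inhibitor MG132; luminescence from HSF1-driven luciferase expression after 8 hours of MG132 stress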

Chain of Induced myeloid leukemia cell differentiation protein Mcl-1 (Q07820 whole entry): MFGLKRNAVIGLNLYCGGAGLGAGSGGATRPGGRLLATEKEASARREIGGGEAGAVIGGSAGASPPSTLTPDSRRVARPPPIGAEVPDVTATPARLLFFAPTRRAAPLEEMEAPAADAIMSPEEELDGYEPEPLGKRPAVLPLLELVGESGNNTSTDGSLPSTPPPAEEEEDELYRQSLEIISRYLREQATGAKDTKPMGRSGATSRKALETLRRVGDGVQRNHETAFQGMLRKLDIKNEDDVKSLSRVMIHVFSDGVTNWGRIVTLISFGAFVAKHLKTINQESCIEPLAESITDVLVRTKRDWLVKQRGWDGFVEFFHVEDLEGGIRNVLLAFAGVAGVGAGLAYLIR

C(=C1c2ccccc2-c2ccccc21)c1ccncc1
IC50 (Protein skinhead-1): > 100 µM (inactive)

O=C(C[C@H]1CC[C@H]2[C@@H](COC[C@H](O)CN2C(=O)Nc2ccc(Cl)c(Cl)c2)O1)NCc1ccncc1
AC50 [1]: 26.5 µM (active) | AC50 [2]: 31.5 µM (active)

O=C(CNc1ccc2ccccc2c1)N/N=C/C=C/c1cccc([N+](=O)[O-])c1
IC50 [3]: 6.79 µM (active)

COc1ccc(-c2csc(Nc3ccccc3)n2)cc1
IC50 (Protein skinhead-1): > 100 µM (inactive) | IC50 [3]: 10.3 µM (not active)

O=C1c2cccc3cc([N+](=O)[O-])cc(c23)C(=O)N1/N=C/c1ccc(O)cc1O
IC50 [3]: 1.44 µM (active)

C#CCCc1ccccc1/C=[N+](/C)[O-]
AC50 [4]: 9.4 µM (active)

Cc1onc(-c2c(Cl)cccc2Cl)c1C(=O)n1nnc2ccccc21
AC50 [5]: 16.4 µM (active) | EC50 (Protein RecA): 26.5 µM (active)

Cc1cccc(-n2ncc3c(NC(C)C)ncnc32)c1
CC50 [6]: 34.4 µM (active)

Cc1nn(Cc2ccccc2)c2c1C(c1ccc(Cl)cc1)C(C#N)=C(N)O2 (stereo not given)
AC50 [5]: 6.41 µM (active) | EC50 (Protein RecA): 3.58 µM (active)

COc1cc2c(cc1OC)C(C)N(S(=O)(=O)c1cnc(Cl)c(Cl)c1)CC2 (stereo not given)
EC50 [7]: 29.3 µM (active) | AC50 [4]: 12.1 µM (active)

COc1ccc(NC(=O)Nc2ccc(N3CCOCC3)c3nonc23)c(OC)c1
IC50 (Protein skinhead-1): > 100 µM (inactive)

CC1=Nc2ccccc2N=C(NC(=O)CN2CCN(c3ccccc3)CC2)C1c1ccccc1 (stereo not given)
IC50 [8]: > 50 µM (not active) | EC50 [9]: > 30 µM (not active) | EC50 [10]: 2.06 µM (active)

Cc1ccc(NC2=NC(=O)/C(=C/C=C/c3ccco3)S2)cc1
IC50 [3]: 8.32 µM (active)

CCOC(=O)c1c(N)sc2c1CCSC2
IC50 (Protein skinhead-1): > 100 µM (inactive)

Brc1ccc(OCc2cn3ccccc3n2)cc1
IC50 (Protein skinhead-1): 41.9 µM (active) | EC50 [7]: > 260 µM (inactive)

CCCNC(=O)COC(=O)c1[nH]c(C)c(C(=O)OCC)c1C
IC50 (Protein skinhead-1): > 100 µM (inactive)

CC1=NN(c2ccccc2)C(=O)/C1=C\c1cc(C)n(-c2cccnc2)c1C
AC50 [5]: 44.8 µM (active) | EC50 (Protein RecA): 88.8 µM (active)

O=C(Nc1nc(-c2ccccc2)cs1)c1ccccc1F
IC50 (Protein skinhead-1): > 100 µM (inactive)

O=C(CSc1nc2ccccc2c(=O)n1-c1ccccc1)N1CCCc2ccccc21
CC50 [6]: 39 µM (active)

O=C(CN1C(=O)CCS(=O)(=O)c2ccccc21)NCc1ccccc1
IC50 (Protein skinhead-1): > 100 µM (inactive)

COC(=O)CC1(c2cccc3ccccc23)C(=O)c2ccccc2C1=O
AC50 [5]: 5.91 µM (active) | EC50 (Protein RecA): 4.46 µM (active)

COc1cccc2c(C)c(C(=O)O)[nH]c12
IC50 [3]: 2.81 µM (active) | EC50 [11]: 5.27 µM (active)

O=C(Cc1ccccc1)c1c[nH]c(C(=O)C(Cl)(Cl)Cl)c1
AC50 [5]: 4.92 µM (active) | EC50 (Protein RecA): 4.99 µM (active)

COc1cc(/C=N/NC(=O)c2ccc([N+](=O)[O-])cc2Cl)cc(Br)c1O
IC50 [3]: 15.2 µM (not active)

CN1CCN(c2ccc([N+](=O)[O-])cc2/C=N/NC(=O)c2cccc([N+](=O)[O-])c2)CC1
IC50 [3]: 3.57 µM (active)

O=C(c1ccc2c(c1)OCO2)N1CCN(c2ccc(C(F)(F)F)cn2)CC1
IC50 [8]: < 0.4 µM (not active)

C#Cc1cccc(-n2nnc(C(=O)OC)c2-c2ccccc2)c1
IC50 (Protein skinhead-1): > 100 µM (inactive)

CCC(C(=O)OCC(=O)Nc1ccccc1-c1ccccc1)c1ccccc1 (stereo not given)
IC50 [8]: 9.96 µM (not active)

Reference: ChEMBL document CHEMBL1201862, “PubChem BioAssay data set” (2004)
